# Data taken from patent US20180186796A1, “COMPOUNDS AND USES THEREOF” (LEAD DISCOVERY SIENA S.R.L., priority 2014, published 2018).
# Like-named read-outs stand apart in the source and are kept apart here.
# Key:
# K562 cells = assay: Antiproliferative activity on human cell line K562; assay type: cell-based; settings: for IC50: Homo sapiens, K562, read-out: Cellular Data (IC50, μM) K562
# Experimental: In vitro experiments were carried out using the human Chronic Myelogeneous Leukemia cell line K562. Cells were purchased from American Type Culture Collection (ATCC, Manassas, Va., USA) and were cultured in RPMI medium supplemented with 10% Foetal Bovine Serum. […] Cell number and vitality were evaluated using the automatic cell counter NucleoCounteri (Chemometec, Denmark). Results from the NucleoCounter represented either total or non-viable cell concentration, depending on the sample preparation indicated by manufacturer.
# In vitro experiments were carried out using the human Chronic Myelogeneous Leukemia cell line K562. Cells were purchased from American Type Culture Collection (ATCC, Manassas, Va., USA) and were cultured in RPMI medium supplemented with 10% Foetal Bovine Serum. […] Cell number and vitality were evaluated using the automatic cell counter NucleoCounter® (Chemometec, Denmark). Results from the NucleoCounter represented either total or non-viable cell concentration, depending on the sample preparation indicated by manufacturer.
# [1] = test system: Fyn mediated phosphorylation of residue Tyr18 in Tau protein; assay: Aβ42 induced Tyr18-Tau phosphorylation in differentiated SH-SY5Y cells; assay type: cell-based, human; settings: for duration of inhibitory activity on Tau phosphorylation: after compound administration; for Aβ42 induced Tyr18-Tau phosphorylation: dose dependent
# Experimental: The neuroblastoma cell line SH-SY5Y was cultured in media obtained by mixing equal volume of MEM and HAM F12 supplemented with 15% fetal calf serum (FCS, Australian origin, Lonza), 100 U/ml penicillin, 100 μg/ml streptomycin and 2 mM L-glutamine (all from Euroclone) at 37° C. in humidified air with 5% CO2. The medium was changed every 48 hours. Cells were split at about 80% confluence and never cultured beyond passage 20. Cell differentiation was achieved by pre-treating for 5 days the SH-SY5Y cells with media containing 1% FCS and 10 μM retinoic acid (RA, Sigma Aldrich). Subsequently cells were treated for other 7 days in media with no serum and supplemented with 50 ng/ml of human recombinant brain derived neurotrophic factor (BDNF, Peprotech), 10 ng/ml human recombinant beta nerve growth factor (NGF, Peprotech), 10 ng/ml neuregulin 1 beta 2 protein (NRG, Abcam) and 9.35 μg/ml vitamin D3 (Sigma Aldrich). To confirm full neuronal differentiation, the expression of mature isoforms of Tau were checked. Differentiated cells were treated for 1.5, 3 and 6 hours with media containing 10 μM Aβ42 oligomer/protofibrils and N2 supplement (Life Technologies), in the presence or in the absence of Fyn inhibitors dissolved in DMSO. As control, cells were treated with media containing equivalent amounts of DMSO.
# Briefly, Aβ42 peptides (Sigma) were dissolved in 1,1,1,3,3,3-hexafluoro-2-propanol and lyophilized to completely remove the solvent. Lyophilized Aβ42 peptides were reconstituted in DMSO to a working concentration of 10 mM, diluted 1:100 using HAM F12 (without phenol red and glutammine), vortexed for 15 sec and incubated 24 hours at 4° C. A042 oligomer/protofibrils were visualized by SDS-PAGE and silver staining.
# human normal fibroblasts = assay: Toxicity in human normal fibroblasts; assay type: cell-based
# recombinant Fyn = recombinant Fyn (Homo sapiens, UniProt P06241); assay: Enzymatic assay on isolated Fyn kinase
# Experimental: Kinase assays were performed in presence of 200 μM ATP and 100 μM peptide substrate. All inhibition assays were conducted with 0.01 μg active kinase, 0.33 μmol [^γ32P]ATP, 60 mM HEPES-NaOH pH 7.5, 3 μM Na-orthovanadate, 1.2 mM DTT, 50 μg/ml PEG20.0000, 10 mM magnesium acetate, 0.004% NP40 and 10% DMSO in a final volume of 10 μL. Fyn and inhibitors were preincubated in ice for 5 min; after addition of the substrates the reaction was conducted at 30° C. for 10 min. The reaction was stopped by adding 5 μL of 3% phosphoric acid. Aliquots (10 μL) were then transferred into a P30 Filtermat (PerkinElmer), washed five times with 75 mM phosphoric acid and once with acetone for 5 minute. The filter was dried and transferred to a sealable plastic bag, and scintillation cocktail (4 mL) was added. Spotted reactions were read in a MicroBeta Liquid (Perkinelmer) scintillation counter. The ID50 values were obtained according to the following equation:
# Ki values toward recombinant Fyn were calculated using the equation:
# according to a competitive mechanism of inhibition toward ATP substrate, where [SATP] is the concentration of ATP. Curve fitting was performed with the program GraphPad Prism version 5.00.
# SH-SY5Y cells [2] = settings: previously reported (ref 20); read-out: antiproliferative effect on SH-SY5Y NB cells (IC50); cited from earlier work
# [3] = Microsomal stability assay; settings: percentage of unmodified drug, Table 8
# [4] = PAMPA, intestinal (GI) permeability
# Recombinant human Src = biological target: T1, Recombinant human Src (Homo sapiens, UniProt P12931); assay: Enzymatic assay on isolated Src; assay type: biochemical; settings: mean of at least two experiments; read-out: Enzymatic Data (Ki, μM) c-Src
# T1 construct: purchased Upstate (Lake Placid, N.Y.)
# Description: Recombinant human Src was purchased from Upstate (Lake Placid, N.Y.).
# SH-SY5Y cells [5] = assay: Spheroid growth assay (SH-SY5Y); assay type: cell-based; settings: Homo sapiens; SH-SY5Y Neuroblastoma cell spheroid; read-out: Cellular Data (IC50, μM) SH-SY5Y
# Experimental: The in vitro antitumoral action of inhibitors was evaluated by neuroblastoma spheroid assay. The SH-SY5Y cell line was utilized as cell model of human neuroblastoma. Cells were purchased from American Type Culture Collection (ATCC, Manassas, Va., USA) and were cultured in DMEM medium supplemented with 10% Fetal Bovine Serum. IBIDI angiogenesis micro-slides (IBIDI GmbH) coated with growth factor reduced Matrigel (BD, Bioscience) and allowed to polymerize for 30 minutes. SH-SY5Y cells were seeded in a 96-multiwell plate in the presence or not (CTR) of inhibitors. […] The size of cellular spheres, in terms of area and diameter, was determined using an Image Pro-plus v 4.5 analysis system considering 5 random fields/treatment (400× magnification).
# Antitumoral effect was also tested by spheroid formation assay.
# Experimental for PAMPA, BBB permeability: Donor solution (0.5 mM) was prepared by diluting 1 mM dimethylsulfoxide (DMSO) compound stock solution using phosphate buffer (pH 7.4, 0.025 M). […] Donor solution (150 μL) was added to each well of the filter plate. To each well of the acceptor plate were added 300 μL of solution (50% DMSO in phosphate buffer). All compounds were tested in three different plates on different days. The sandwich was incubated for 5 h at room temperature under gentle shaking. After the incubation time, the plates were separated, and samples were taken from both receiver and donor sides and analyzed using LC with UV detection at 280 nm.
# Permeability (Papp) for PAMPA was calculated according to the following equation, obtained from Wohnsland and Faller^27 and Sugano et al.^28 equation with some modification in order to obtain permeability values in cm s^−1,
# Drug concentration is estimated by using the peak area integration. Membrane retentions (%) were calculated according to the following equation:
# where r is the ratio between drug concentration in the acceptor and equilibrium concentration, D, A, and Eq represented drug concentration in the donor, acceptor and equilibrium solution, respectively.
# Donor solution of tested compounds (0.5 mM) was prepared by diluting 1 mM dimethylsulfoxide (DMSO) compound stock solution using phosphate buffer (pH 7.4, 25 mM). […] Donor solution (150 μL) was added to each well of the filter plate. To each well of the acceptor plate were added 300 μL of solution (50% DMSO in phosphate buffer). Compounds was tested in three different plates on different days. The sandwich was incubated for 5 h at room temperature under gentle shaking.
# Permeability (Papp) for PAMPA was calculated according to the following equation, obtained from Wohnsland and Faller and Sugano et al.^27, 28.
# Drug concentration is estimated by using the peak area integration. Membrane retention (%) was calculated according to the following equation:
# Chain of recombinant Fyn (P06241 whole entry, looked up): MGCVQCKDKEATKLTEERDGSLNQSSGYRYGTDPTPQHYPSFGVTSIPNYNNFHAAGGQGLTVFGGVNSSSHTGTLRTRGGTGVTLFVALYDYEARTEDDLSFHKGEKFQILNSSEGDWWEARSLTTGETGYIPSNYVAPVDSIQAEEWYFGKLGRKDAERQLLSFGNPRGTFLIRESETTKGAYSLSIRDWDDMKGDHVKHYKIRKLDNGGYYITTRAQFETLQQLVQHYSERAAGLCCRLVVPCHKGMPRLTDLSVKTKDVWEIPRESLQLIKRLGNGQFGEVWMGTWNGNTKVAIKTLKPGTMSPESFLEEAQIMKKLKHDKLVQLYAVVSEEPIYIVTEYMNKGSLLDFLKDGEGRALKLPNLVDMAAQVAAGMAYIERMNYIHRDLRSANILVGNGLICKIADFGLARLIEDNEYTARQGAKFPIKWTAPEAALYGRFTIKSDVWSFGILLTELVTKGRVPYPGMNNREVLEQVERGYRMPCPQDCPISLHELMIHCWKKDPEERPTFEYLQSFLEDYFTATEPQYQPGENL
# T1 sequence (P12931 whole entry): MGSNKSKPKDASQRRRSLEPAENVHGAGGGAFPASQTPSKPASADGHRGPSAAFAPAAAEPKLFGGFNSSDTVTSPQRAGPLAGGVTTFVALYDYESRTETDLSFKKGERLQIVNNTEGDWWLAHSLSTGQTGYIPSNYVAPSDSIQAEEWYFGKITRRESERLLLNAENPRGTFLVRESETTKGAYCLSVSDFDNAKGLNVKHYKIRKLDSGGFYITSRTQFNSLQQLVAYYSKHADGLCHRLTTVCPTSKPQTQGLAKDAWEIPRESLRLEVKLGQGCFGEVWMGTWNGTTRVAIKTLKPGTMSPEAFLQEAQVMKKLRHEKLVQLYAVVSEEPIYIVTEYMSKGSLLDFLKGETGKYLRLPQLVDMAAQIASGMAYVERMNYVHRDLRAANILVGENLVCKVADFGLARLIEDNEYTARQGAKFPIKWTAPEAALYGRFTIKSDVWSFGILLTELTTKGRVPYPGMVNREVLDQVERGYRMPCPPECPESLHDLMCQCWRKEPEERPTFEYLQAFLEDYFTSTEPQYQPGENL
smiles,measurement,setting,value
"Nc1ncnc2c1c(-c1ccc(Cl)cc1)nn2CC(Cl)c1ccccc1 (stereo not drawn) [Si308, 3-(4-Chlorophenyl)-1-(2-chloro-2-phenylethyl)-1H-pyrazolo[3,4-d]pyrimidin-4-amine]",IC50 for cell viability K562,K562 cells,submicromolar range
same,IC50,K562 cells,0.56 ± 0.01 µM
same,duration of inhibitory activity on Tau phosphorylation,[1],effective up to six hours
same,Aβ42 induced Tyr18-Tau phosphorylation,[1],significantly affected
same,cell toxicity in human normal fibroblasts,human normal fibroblasts,did not showed any sign of cell toxicity
same,melting point,,150 to 151 °C
same,Ki,recombinant Fyn,95 nM
same,Ki,recombinant Fyn; read-out: Ki Fyn,70 nM
"Cc1ccc(-c2nn(CC(Cl)c3ccccc3)c3ncnc(N)c23)cc1 (stereo not drawn) [Si309, 1-(2-Chloro-2-phenylethyl)-3-(4-methylphenyl)-1H-pyrazolo[3,4-d]pyrimidin-4-amine]",IC50 for cell viability K562,K562 cells,submicromolar range
same,IC50,K562 cells,0.3 ± 0.06 µM
same,duration of inhibitory activity on Tau phosphorylation,[1],effective up to six hours
same,Aβ42 induced Tyr18-Tau phosphorylation,[1],significantly affected
same,cell toxicity in human normal fibroblasts,human normal fibroblasts,did not showed any sign of cell toxicity
"CSc1nc(Nc2cccc(Cl)c2)c2cnn(CCc3ccccc3)c2n1 [Si214, N-(3-chlorophenyl)-6-(methylthio)-1-phenethyl-1H-pyrazolo[3,4-d]pyrimidin-4-amine]",IC50,SH-SY5Y cells [2],80 nM
same,PAMPA BBB (MR %),"PAMPA, BBB permeability; Membrane Retention, BBB",(55.7) %
same,"Papp at 5 h, 0.5 mM","PAMPA, BBB permeability; PAMPA, pH 7.4",1.48 ×10⁻⁶ cm/s
same,Metabolic Stab. %,[3],99.0%
same,PAMPA GI,"[4]; Gastrointestinal PAMPA, Table 8",0 10^−6 cm · sec^−1
same,PAMPA GI (MR %),"[4]; Membrane Retention, GI",(78.0) %
Fc1ccccc1CNc1nc(SCCN2CCOCC2)nc2c1cnn2CCc1ccccc1,Ki,Recombinant human Src,0.17 µM
same,IC50,SH-SY5Y cells [5],63 µM
